This note sets out measurements from ChEMBL document CHEMBL1136143, “Synthesis and activity of novel benzoxazole derivatives of mannopeptimycin glycopeptide antibiotics” (2003).

Converted amounts (≈) assume the structure as drawn.

One may read the MIC as the lowest concentration that inhibits growth of the organism. Low values mean inhibition by little substance, high ones a need for much substance.

Format in all cases: functional
In assay [1] the test system is Streptococcus. The experiment in a line: In vitro minimum inhibitory concentration against Streptococcus Species (5 strains, including PRSP).
For assay [2], the system named is Enterococcus sp. The experiment in a line: In vitro minimum inhibitory concentration against Enterococcus species (11 strains, including VRE).
In assay [3] the test system is Staphylococcus aureus. As to the kind of experiment: In vitro minimum inhibitory concentration against Staphylococcus aureus (10strains, including MRSA).

Take `C[C@@H](c1ccccc1)[C@@H]1NC(=O)CNC(=O)[C@H](CO)NC(=O)[C@@H]([C@@H](O)[C@@H]2CN=C(N)N2)NC(=O)[C@H]([C@H](O)[C@@H]2CN=C(N)N2)NC(=O)[C@@H](Cc2ccc3nc(-c4ccccc4)oc3c2)NC1=O`: the minimal inhibitory concentration (MIC) in assay [1], in assay [2] and in assay [3] was 32 µg/mL (≈ 35.2 µM) throughout.
As to `COc1cc(-c2nc3ccc(C[C@H]4NC(=O)[C@H]([C@@H](C)c5ccccc5)NC(=O)CNC(=O)[C@H](CO)NC(=O)[C@@H]([C@@H](O)[C@@H]5CN=C(N)N5[C@H]5O[C@H](CO)[C@@H](O)[C@H](O)[C@@H]5O)NC(=O)[C@H]([C@H](O)[C@@H]5CN=C(N)N5)NC4=O)cc3o2)cc(OC)c1OC`, the MIC in assay [1], in assay [2] and in assay [3] was 8 µg/mL (≈ 6.88 µM) throughout.
For `C[C@@H](c1ccccc1)[C@@H]1NC(=O)CNC(=O)[C@H](CO)NC(=O)[C@@H]([C@@H](O)[C@@H]2CN=C(N)N2[C@H]2O[C@H](CO)[C@@H](O)[C@H](O)[C@@H]2O)NC(=O)[C@H]([C@H](O)[C@@H]2CN=C(N)N2)NC(=O)[C@@H](Cc2ccc3nc(-c4ccc(C(C)(C)C)cc4)oc3c2)NC1=O`, the minimal inhibitory concentration (MIC) in assay [1] is 8 µg/mL (≈ 7.09 µM); in assay [2], 2 µg/mL (≈ 1.77 µM); in assay [3] it was 2 µg/mL (≈ 1.77 µM).
Take `C[C@@H](c1ccccc1)[C@@H]1NC(=O)CNC(=O)[C@H](CO)NC(=O)[C@@H]([C@@H](O)[C@@H]2CN=C(N)N2[C@H]2O[C@H](CO)[C@@H](O)[C@H](O)[C@@H]2O)NC(=O)[C@H]([C@H](O)[C@@H]2CN=C(N)N2)NC(=O)[C@@H](Cc2ccc3nc(-c4ccco4)oc3c2)NC1=O`: the minimum inhibitory concentration (MIC) was found to be 32 µg/mL (≈ 30.1 µM) in assay [1], 32 µg/mL (≈ 30.1 µM) in assay [2] and 6 µg/mL (≈ 5.65 µM) in assay [3].
Consider `C[C@@H](c1ccccc1)[C@@H]1NC(=O)CNC(=O)[C@H](CO)NC(=O)[C@@H]([C@@H](O)[C@@H]2CN=C(N)N2[C@H]2O[C@H](CO)[C@@H](O)[C@H](O)[C@@H]2O)NC(=O)[C@H]([C@H](O)[C@@H]2CN=C(N)N2)NC(=O)[C@@H](Cc2ccc3nc(SCc4ccc(-c5ccccc5)cc4)oc3c2)NC1=O`, for which the MIC was 2 µg/mL (≈ 1.67 µM) in assay [1], 2 µg/mL (≈ 1.67 µM) in assay [2] and 8 µg/mL (≈ 6.7 µM) in assay [3].
Consider `C[C@@H](c1ccccc1)[C@@H]1NC(=O)CNC(=O)[C@H](CO)NC(=O)[C@@H]([C@@H](O)[C@@H]2CN=C(N)N2[C@H]2O[C@H](CO)[C@@H](O)[C@H](O)[C@@H]2O)NC(=O)[C@H]([C@H](O)[C@@H]2CN=C(N)N2)NC(=O)[C@@H](Cc2ccc3nc(-c4cccs4)oc3c2)NC1=O`, for which the minimal inhibitory concentration (MIC) in assay [1] worked out at 16 µg/mL (≈ 14.8 µM); in assay [2], 16 µg/mL (≈ 14.8 µM); in assay [3], 8 µg/mL (≈ 7.42 µM).
For `C[C@@H](c1ccccc1)[C@@H]1NC(=O)CNC(=O)[C@H](CO)NC(=O)[C@@H]([C@@H](O)[C@@H]2CN=C(N)N2[C@H]2O[C@H](CO)[C@@H](O)[C@H](O)[C@@H]2O)NC(=O)[C@H]([C@H](O)[C@@H]2CN=C(N)N2)NC(=O)[C@@H](Cc2ccc3nc(NC4O[C@@H](OC(=O)c5ccccc5)[C@H](OC(=O)c5ccccc5)[C@@H](OC(=O)c5ccccc5)[C@@H]4COC(=O)c4ccccc4)oc3c2)NC1=O` (stereo partly specified), the results for the MIC in assay [1], in assay [2] and in assay [3] were 4 µg/mL (≈ 2.52 µM), 4 µg/mL (≈ 2.52 µM) and 32 µg/mL (≈ 20.1 µM), respectively.
Regarding `C[C@@H](c1ccccc1)[C@@H]1NC(=O)CNC(=O)[C@H](CO)NC(=O)[C@@H]([C@@H](O)[C@@H]2CN=C(N)N2[C@H]2O[C@H](CO)[C@@H](O)[C@H](O)[C@@H]2O)NC(=O)[C@H]([C@H](O)[C@@H]2CN=C(N)N2)NC(=O)[C@@H](Cc2ccc3nc(-c4cccc(C(C)(C)C)c4)oc3c2)NC1=O`, the MIC in assay [1] is 8 µg/mL (≈ 7.09 µM); in assay [2] it was 8 µg/mL (≈ 7.09 µM); in assay [3], 16 µg/mL (≈ 14.2 µM).
As for `C[C@@H](c1ccccc1)[C@@H]1NC(=O)CNC(=O)[C@H](CO)NC(=O)[C@@H]([C@@H](O)[C@@H]2CN=C(N)N2[C@H]2O[C@H](CO)[C@@H](O)[C@H](O)[C@@H]2O)NC(=O)[C@H]([C@H](O)[C@@H]2CN=C(N)N2)NC(=O)[C@@H](Cc2ccc3nc(SCc4ccccc4)oc3c2)NC1=O`, the minimal inhibitory concentration (MIC) in assay [1], in assay [2] and in assay [3] was 4 µg/mL (≈ 3.58 µM) throughout.
In the case of `C[C@@H](c1ccccc1)[C@@H]1NC(=O)CNC(=O)[C@H](CO)NC(=O)[C@@H]([C@@H](O)[C@@H]2CN=C(N)N2[C@H]2O[C@H](CO)[C@@H](O)[C@H](O)[C@@H]2O)NC(=O)[C@H]([C@H](O)[C@@H]2CN=C(N)N2)NC(=O)[C@@H](Cc2ccc3nc(C=C(c4ccccc4)c4ccccc4)oc3c2)NC1=O`, the MIC came out at 4 µg/mL (≈ 3.41 µM) in assay [1], 8 µg/mL (≈ 6.81 µM) in assay [2] and 8 µg/mL (≈ 6.81 µM) in assay [3].
Consider `C[C@@H](c1ccccc1)[C@@H]1NC(=O)CNC(=O)[C@H](CO)NC(=O)[C@@H]([C@@H](O)[C@@H]2CN=C(N)N2[C@H]2O[C@H](CO)[C@@H](O)[C@H](O)[C@@H]2O)NC(=O)[C@H]([C@H](O)[C@@H]2CN=C(N)N2)NC(=O)[C@@H](Cc2ccc3nc(-c4ccccc4OC4O[C@H](CO)[C@@H](O)[C@H](O)[C@H]4O)oc3c2)NC1=O` (stereo partly specified), for which the minimum inhibitory concentration (MIC) is 128 µg/mL (≈ 102 µM) in assay [1], 128 µg/mL (≈ 102 µM) in assay [2] and > 128 µg/mL in assay [3].
For `C[C@@H](c1ccccc1)[C@@H]1NC(=O)CNC(=O)[C@H](CO)NC(=O)[C@@H]([C@@H](O)[C@@H]2CN=C(N)N2[C@H]2O[C@H](CO)[C@@H](O)[C@H](O)[C@@H]2O)NC(=O)[C@H]([C@H](O)[C@@H]2CN=C(N)N2)NC(=O)[C@@H](Cc2ccc3nc(-c4ccc5c(c4)-c4ccccc4C5)oc3c2)NC1=O`, the minimum inhibitory concentration (MIC) in assay [1] stood at 4 µg/mL (≈ 3.45 µM); in assay [2] it was 4 µg/mL (≈ 3.45 µM); in assay [3], 8 µg/mL (≈ 6.9 µM).
For the compound `C[C@@H](c1ccccc1)[C@@H]1NC(=O)CNC(=O)[C@H](CO)NC(=O)[C@@H]([C@@H](O)[C@@H]2CN=C(N)N2[C@H]2O[C@H](CO)[C@@H](O)[C@H](O)[C@@H]2O)NC(=O)[C@H]([C@H](O)[C@@H]2CN=C(N)N2)NC(=O)[C@@H](Cc2ccc3nc(-c4ccc(Br)cc4)oc3c2)NC1=O`, the MIC in assay [1] was found to be 4 µg/mL (≈ 3.48 µM); in assay [2], 8 µg/mL (≈ 6.95 µM); in assay [3] it was 8 µg/mL (≈ 6.95 µM).
In the case of `C[C@@H](c1ccccc1)[C@@H]1NC(=O)CNC(=O)[C@H](CO)NC(=O)[C@@H]([C@@H](O)[C@@H]2CN=C(N)N2[C@H]2O[C@H](CO)[C@@H](O)[C@H](O)[C@@H]2O)NC(=O)[C@H]([C@H](O)[C@@H]2CN=C(N)N2)NC(=O)[C@@H](Cc2ccc3nc(SCC(=O)c4ccccc4)oc3c2)NC1=O`, the minimum inhibitory concentration (MIC) in assay [1] was 8 µg/mL (≈ 6.98 µM); in assay [2], 4 µg/mL (≈ 3.49 µM); in assay [3] it was 8 µg/mL (≈ 6.98 µM).
Turning to `C[C@@H](c1ccccc1)[C@@H]1NC(=O)CNC(=O)[C@H](CO)NC(=O)[C@@H]([C@@H](O)[C@@H]2CN=C(N)N2[C@H]2O[C@H](CO)[C@@H](O)[C@H](O)[C@@H]2O)NC(=O)[C@H]([C@H](O)[C@@H]2CN=C(N)N2)NC(=O)[C@@H](Cc2ccc3nc(-c4ccc(-c5ccccc5)cc4)oc3c2)NC1=O`, the values for the MIC in assay [1], in assay [2] and in assay [3] were 16 µg/mL (≈ 13.9 µM), 4 µg/mL (≈ 3.48 µM) and 4 µg/mL (≈ 3.48 µM), respectively.
Take `C[C@@H](c1ccccc1)[C@@H]1NC(=O)CNC(=O)[C@H](CO)NC(=O)[C@@H]([C@@H](O)[C@@H]2CN=C(N)N2[C@H]2O[C@H](CO)[C@@H](O)[C@H](O)[C@@H]2O)NC(=O)[C@H]([C@H](O)[C@@H]2CN=C(N)N2)NC(=O)[C@@H](Cc2ccc3nc(-c4ccc(OCc5ccccc5)cc4)oc3c2)NC1=O`: the results for the MIC in assay [1], in assay [2] and in assay [3] were 8 µg/mL (≈ 6.79 µM), 4 µg/mL (≈ 3.39 µM) and 8 µg/mL (≈ 6.79 µM), respectively.
In the case of `CC(C)=Cc1nc2ccc(C[C@H]3NC(=O)[C@H]([C@@H](C)c4ccccc4)NC(=O)CNC(=O)[C@H](CO)NC(=O)[C@@H]([C@@H](O)[C@@H]4CN=C(N)N4[C@H]4O[C@H](CO)[C@@H](O)[C@H](O)[C@@H]4O)NC(=O)[C@H]([C@H](O)[C@@H]4CN=C(N)N4)NC3=O)cc2o1`, the values for the MIC in assay [1], in assay [2] and in assay [3] were 32 µg/mL (≈ 30.5 µM), 16 µg/mL (≈ 15.2 µM) and 32 µg/mL (≈ 30.5 µM), respectively.
As for `C[C@@H](c1ccccc1)[C@@H]1NC(=O)CNC(=O)[C@H](CO)NC(=O)[C@@H]([C@@H](O)[C@@H]2CN=C(N)N2[C@H]2O[C@H](CO)[C@@H](O)[C@H](O)[C@@H]2O)NC(=O)[C@H]([C@H](O)[C@@H]2CN=C(N)N2)NC(=O)[C@@H](Cc2ccc3nc(-c4ccc(C(=O)O)cc4)oc3c2)NC1=O`, the MIC in assay [1] was 128 µg/mL (≈ 115 µM); in assay [2], 128 µg/mL (≈ 115 µM); in assay [3], > 128 µg/mL.
As for `CN[C@H](CC(C)C)C(=O)N[C@H]1C(=O)N[C@@H](CC(N)=O)C(=O)N[C@H]2C(=O)N[C@H]3C(=O)N[C@H](C(=O)N[C@H](C(=O)O)c4cc(O)cc(O)c4-c4cc3ccc4O)[C@H](O)c3ccc(c(Cl)c3)Oc3cc2cc(c3O[C@@H]2O[C@H](CO)[C@@H](O)[C@H](O)[C@H]2O[C@H]2C[C@](C)(N)[C@H](O)[C@H](C)O2)Oc2ccc(cc2Cl)[C@H]1O` [VANCOMYCIN], the MIC in assay [1] turned out to be 0.25 µg/mL (≈ 0.173 µM); in assay [2], 5 µg/mL (≈ 3.45 µM).
